Laboratory results as given in patent publication US10882012B2, “Process for producing a nano resveratrol microemulsion system” (priority 2018, dated 2021).

Test: Water solubility / water-dispersing ability
Format: physicochemical
Settings: dispersed in water, bottle A versus bottle B, visual

- Water-dispersing ability (FIG. 1): insoluble in water
SMILES: Oc1ccc(C=Cc2cc(O)cc(O)c2)cc1 [known 99% resveratrol, resveratrol]
